Article PMC10100467, “The Function of Two Radical‐SAM Enzymes, HcgA and HcgG, in the Biosynthesis of the [Fe]‐Hydrogenase Cofactor” (Angewandte Chemie (International Ed. in English), 2022)

Biological target: T1, HcgA (Methanococcus maripaludis, UniProt Q6M0Z2)
T1 construct: His-tagged, produced in Escherichia coli with helper plasmid pRKISC; [4Fe-4S] radical SAM enzyme, CX5CX2C motif
T1 sequence (Q6M0Z2 1-341): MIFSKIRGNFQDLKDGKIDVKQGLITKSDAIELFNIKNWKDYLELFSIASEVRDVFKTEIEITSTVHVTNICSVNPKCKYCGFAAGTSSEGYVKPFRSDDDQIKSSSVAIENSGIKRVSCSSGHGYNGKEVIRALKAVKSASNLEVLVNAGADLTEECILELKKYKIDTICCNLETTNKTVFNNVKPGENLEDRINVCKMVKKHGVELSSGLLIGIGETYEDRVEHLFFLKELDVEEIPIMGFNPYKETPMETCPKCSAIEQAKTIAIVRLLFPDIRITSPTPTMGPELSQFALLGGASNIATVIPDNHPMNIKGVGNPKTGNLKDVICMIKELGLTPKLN
Experiment: radical SAM activity, HPLC-MS of product […]
Format: biochemical
Conditions: 1 mM SAH, without added SAM; 3 kDa filtrate of the delta-hcgA cell extract as substrate

`Nc1ncnc2c1ncn2[C@@H]1O[C@H](CSCC[C@H](N)C(=O)O)[C@@H](O)[C@H]1O` [S-adenosyl homocysteine] was tested, and the “relative activity (%)” value was “The HcgA activity was inhibited by a radical SAM enzyme inhibitor, S‐adenosyl homocysteine”.
